Test results from ChEMBL document CHEMBL3272269, “Synthesis and antileukemic activities of furanyl, pyranyl, and ribosyl derivatives of 4-(3,3-dimethyl-1-triazeno)imidazole-5-carboxamide and 3-(3,3-dimethyl-1-triazeno)pyrazole-4-carboxamide” (J Med Chem, 1979).
Activity calls are given as the source filed them. No cut-off for these calls is given here.

Legend:
[1] = tested on: L1210; assay: Antitumor activity against mouse L1210 cells allografted in mouse assessed as increase in survival at 200 mg/kg administered on day 1 followed by 3 injections with 4 day interval relative to control; format: functional
[2] = tested on: Mus musculus; assay: Toxicity in mouse L1210 cells allografted BDF1 mouse assessed as reduction in body weight at 100 mg/kg administered on day 1 followed by 3 injections with 4 day interval; format: organism-based; set-up: dose 100 mg/kg; conditions: in vivo, 96 h
[3] = tested on: Mus musculus; assay: Toxicity in mouse L1210 cells allografted BDF1 mouse assessed as reduction in body weight at 400 mg/kg administered on day 1 followed by 3 injections with 4 day interval; format: organism-based; set-up: dose 400 mg/kg; conditions: in vivo, 96 h
[4] = tested on: Mus musculus; assay: Toxicity in mouse L1210 cells allografted BDF1 mouse assessed as reduction in body weight at 200 mg/kg administered on day 1 followed by 9 injections with 1 day interval; format: organism-based; set-up: dose 200 mg/kg; conditions: in vivo, 24 h
[5] = tested on: L1210; assay: Antitumor activity against mouse L1210 cells allografted in mouse assessed as survival at 200 mg/kg administered on day 1 followed by 9 injections with 1 day interval; format: functional, organism-based; set-up: dose 200 mg/kg
[6] = tested on: L1210; assay: Antitumor activity against mouse L1210 cells allografted in mouse assessed as increase in survival at 200 mg/kg administered on day 1 followed by 9 injections with 1 day interval relative to control; format: functional
[7] = tested on: L1210; assay: Antitumor activity against mouse L1210 cells allografted in mouse assessed as survival at 100 mg/kg administered on day 1 followed by 3 injections with 4 day interval; format: functional, organism-based; set-up: dose 100 mg/kg
[8] = tested on: L1210; assay: Antitumor activity against mouse L1210 cells allografted in mouse assessed as survival at 200 mg/kg administered on day 1 followed by 3 injections with 4 day interval; format: functional, organism-based; set-up: dose 200 mg/kg
[9] = tested on: L1210; assay: Antitumor activity against mouse L1210 cells allografted in mouse assessed as increase in survival at 400 mg/kg administered on day 1 followed by 3 injections with 4 day interval relative to control; format: functional
[10] = tested on: Mus musculus; assay: Toxicity in mouse L1210 cells allografted BDF1 mouse assessed as reduction in body weight at 200 mg/kg administered on day 1 followed by 3 injections with 4 day interval; format: organism-based; set-up: dose 200 mg/kg; conditions: in vivo, 96 h
[11] = tested on: L1210; assay: Antitumor activity against mouse L1210 cells allografted in mouse assessed as survival at 400 mg/kg administered on day 1 followed by 3 injections with 4 day interval; format: functional, organism-based; set-up: dose 400 mg/kg
[12] = tested on: L1210; assay: Antitumor activity against mouse L1210 cells allografted in mouse assessed as increase in survival at 100 mg/kg administered on day 1 followed by 3 injections with 4 day interval relative to control; format: functional
[13] = tested on: L1210; assay: Antitumor activity against mouse L1210 cells allografted in mouse assessed as increase in survival at 200 mg/kg administered on day 1 followed by 5 injections with 1 day interval relative to control; format: functional
[14] = tested on: L1210; assay: Antitumor activity against mouse L1210 cells allografted in mouse assessed as increase in survival at 100 mg/kg administered on day 1 followed by 5 injections with 1 day interval relative to control; format: functional
[15] = tested on: L1210; assay: Antitumor activity against mouse L1210 cells allografted in mouse assessed as increase in survival at 400 mg/kg administered on day 1 followed by 5 injections with 1 day interval relative to control; format: functional
[16] = tested on: Mus musculus; assay: Toxicity in mouse L1210 cells allografted mouse assessed as reduction in body weight at 100 mg/kg administered on day 1 followed by 5 injections with 1 day interval; format: organism-based; set-up: dose 100 mg/kg; conditions: in vivo, 24 h
[17] = tested on: L1210; assay: Antitumor activity against mouse L1210 cells allografted in mouse assessed as survival at 100 mg/kg administered on day 1 followed by 5 injections with 1 day interval; format: functional, organism-based; set-up: dose 100 mg/kg
[18] = tested on: L1210; assay: Antitumor activity against mouse L1210 cells allografted in mouse assessed as survival at 400 mg/kg administered on day 1 followed by 5 injections with 1 day interval; format: functional, organism-based; set-up: dose 400 mg/kg
[19] = tested on: L1210; assay: Antitumor activity against mouse L1210 cells allografted in mouse assessed as survival at 200 mg/kg administered on day 1 followed by 5 injections with 1 day interval; format: functional, organism-based; set-up: dose 200 mg/kg
[20] = tested on: Mus musculus; assay: Toxicity in mouse L1210 cells allografted mouse assessed as reduction in body weight at 200 mg/kg administered on day 1 followed by 5 injections with 1 day interval; format: organism-based; set-up: dose 200 mg/kg; conditions: in vivo, 24 h
[21] = tested on: Mus musculus; assay: Toxicity in mouse L1210 cells allografted mouse assessed as reduction in body weight at 400 mg/kg administered on day 1 followed by 5 injections with 1 day interval; format: organism-based; set-up: dose 400 mg/kg; conditions: in vivo, 24 h
[22] = tested on: Mus musculus; assay: Toxicity in mouse L1210 cells allografted BDF1 mouse assessed as reduction in body weight at 65 mg/kg administered on day 1 followed by 9 injections with 1 day interval; format: organism-based; set-up: dose 65 mg/kg; conditions: in vivo, 24 h
[23] = tested on: Mus musculus; assay: Toxicity in mouse L1210 cells allografted BDF1 mouse assessed as reduction in body weight at 109 mg/kg administered on day 1 followed by 9 injections with 1 day interval; format: organism-based; set-up: dose 109 mg/kg; conditions: in vivo, 24 h
[24] = tested on: Mus musculus; assay: Toxicity in mouse L1210 cells allografted BDF1 mouse assessed as reduction in body weight at 180 mg/kg administered on day 1 followed by 9 injections with 1 day interval; format: organism-based; set-up: dose 180 mg/kg; conditions: in vivo, 24 h
[25] = tested on: L1210; assay: Antitumor activity against mouse L1210 cells allografted in BDF1 mouse assessed as survival at 180 mg/kg administered on day 1 followed by 5 injections with 1 day interval; format: functional, organism-based; set-up: dose 180 mg/kg
[26] = tested on: L1210; assay: Antitumor activity against mouse L1210 cells allografted in BDF1 mouse assessed as survival at 53 mg/kg administered on day 1 followed by 5 injections with 1 day interval; format: functional, organism-based; set-up: dose 53 mg/kg
[27] = tested on: Mus musculus; assay: Toxicity in mouse L1210 cells allografted BDF1 mouse assessed as reduction in body weight at 180 mg/kg administered on day 1 followed by 5 injections with 1 day interval; format: organism-based; set-up: dose 180 mg/kg; conditions: in vivo, 24 h
[28] = tested on: L1210; assay: Antitumor activity against mouse L1210 cells allografted in BDF1 mouse assessed as increase in survival at 180 mg/kg administered on day 1 followed by 5 injections with 1 day interval relative to control; format: functional
[29] = tested on: Mus musculus; assay: Toxicity in mouse L1210 cells allografted BDF1 mouse assessed as reduction in body weight at 125 mg/kg administered on day 1 followed by 5 injections with 1 day interval; format: organism-based; set-up: dose 125 mg/kg; conditions: in vivo, 24 h
[30] = tested on: L1210; assay: Antitumor activity against mouse L1210 cells allografted in BDF1 mouse assessed as increase in survival at 53 mg/kg administered on day 1 followed by 5 injections with 1 day interval relative to control; format: functional
[31] = tested on: L1210; assay: Antitumor activity against mouse L1210 cells allografted in BDF1 mouse assessed as increase in survival at 120 mg/kg administered on day 1 followed by 5 injections with 1 day interval relative to control; format: functional
[32] = tested on: Mus musculus; assay: Toxicity in mouse L1210 cells allografted BDF1 mouse assessed as reduction in body weight at 80 mg/kg administered on day 1 followed by 5 injections with 1 day interval; format: organism-based; set-up: dose 80 mg/kg; conditions: in vivo, 24 h
[33] = tested on: Mus musculus; assay: Toxicity in mouse L1210 cells allografted BDF1 mouse assessed as reduction in body weight at 53 mg/kg administered on day 1 followed by 5 injections with 1 day interval; format: organism-based; set-up: dose 53 mg/kg; conditions: in vivo, 24 h
[34] = tested on: L1210; assay: Antitumor activity against mouse L1210 cells allografted in BDF1 mouse assessed as survival at 125 mg/kg administered on day 1 followed by 5 injections with 1 day interval; format: functional, organism-based; set-up: dose 125 mg/kg
[35] = tested on: L1210; assay: Antitumor activity against mouse L1210 cells allografted in BDF1 mouse assessed as increase in survival at 125 mg/kg administered on day 1 followed by 5 injections with 1 day interval relative to control; format: functional
[36] = tested on: L1210; assay: Antitumor activity against mouse L1210 cells allografted in BDF1 mouse assessed as increase in survival at 80 mg/kg administered on day 1 followed by 5 injections with 1 day interval relative to control; format: functional
[37] = tested on: L1210; assay: Antitumor activity against mouse L1210 cells allografted in BDF1 mouse assessed as survival at 80 mg/kg administered on day 1 followed by 5 injections with 1 day interval; format: functional, organism-based; set-up: dose 80 mg/kg
[38] = tested on: Mus musculus; assay: Toxicity in mouse L1210 cells allografted BDF1 mouse assessed as reduction in body weight at 120 mg/kg administered on day 1 followed by 5 injections with 1 day interval; format: organism-based; set-up: dose 120 mg/kg; conditions: in vivo, 24 h

For `CC(=O)OC[C@H]1O[C@@H](n2cc(C(N)=O)c(/N=N/N(C)C)n2)[C@H](OC(C)=O)[C@@H]1OC(C)=O`, which T/C [1] is on record?
Its T/C is 105%.

And the Activity [2]?
Its Activity is 0.1 g.

And the Activity [3]?
The Activity was 1.1 g.

What about the Activity [4] of the same molecule?
Its Activity is 2.8 g.

And the Activity [5]?
Its Activity is “Active”.

What about the T/C [6] of the same molecule?
The T/C was 107%.

And the Activity [7]?
Its Activity is “Active”.

What about the Activity [8] of the same molecule?
Its Activity is “Active”.

And the T/C [9]?
Its T/C is 89%.

And the Activity [10]?
The Activity was 1.8 g.

What about the Activity [11] of the same molecule?
Its Activity is “Active”.

What about the T/C [12] of the same molecule?
The T/C was 100%.

Which T/C [1] does the source give for `CN(C)/N=N/c1c(C(N)=O)cnn1C1CCCCO1` (configuration not stated) here?
The T/C was 117%.

And the Activity [2]?
The Activity was 2.2 g.

What about the Activity [3] of the same molecule?
The Activity was 3.5 g.

What about the Activity [7] of the same molecule?
The Activity was “Active”.

What about the Activity [8] of the same molecule?
Its Activity is “Active”.

And the T/C [9]?
The T/C was 123%.

And the Activity [10]?
Its Activity is 3.1 g.

And the Activity [11]?
Its Activity is “Active”.

What about the T/C [12] of the same molecule?
The T/C was 107%.

`CC(=O)OC[C@H]1O[C@@H](n2cnc(/N=N/N(C)C)c2C(N)=O)[C@H](OC(C)=O)[C@@H]1OC(C)=O` was tested. Which T/C [13] did it give?
Its T/C is 124%.

What about the T/C [14] of the same molecule?
The T/C was 123%.

And the T/C [15]?
The T/C was 157%.

What about the Activity [16] of the same molecule?
Its Activity is 1.5 g.

And the Activity [17]?
The Activity was “Active”.

What about the Activity [18] of the same molecule?
The Activity was “Active”.

What about the Activity [19] of the same molecule?
Its Activity is “Active”.

And the Activity [20]?
The Activity was 1.6 g.

And the Activity [21]?
The Activity was 2.2 g.

How did the Activity [22] turn out when `CN(C)/N=N/c1[nH]ncc1C(N)=O` was run?
Its Activity is 3.2 g.

And the Activity [23]?
The Activity was 3.7 g.

And the Activity [24]?
The Activity was 4.9 g.

With `CN(C)/N=N/c1[nH]cnc1C(N)=O` [DACARBAZINE] as the molecule, how does the Activity [25] read?
Its Activity is “Active”.

What about the Activity [26] of the same molecule?
Its Activity is “Active”.

And the Activity [27]?
Its Activity is 2.6 g.

What about the T/C [28] of the same molecule?
The T/C was 142%.

What about the Activity [29] of the same molecule?
Its Activity is 2.1 g.

What about the T/C [30] of the same molecule?
The T/C was 126%.

And the T/C [31]?
Its T/C is 157%.

What about the Activity [32] of the same molecule?
The Activity was 2 g.

And the Activity [33]?
Its Activity is 0.8 g.

What about the Activity [34] of the same molecule?
The Activity was “Active”.

What about the T/C [35] of the same molecule?
The T/C was 147%.

And the T/C [36]?
The T/C was 147%.

What about the Activity [37] of the same molecule?
The Activity was “Active”.

What about the Activity [38] of the same molecule?
Its Activity is 2.2 g.
